Measurements published in ChEMBL document CHEMBL1152446, “Identification of an orally efficacious matrix metalloprotease 12 inhibitor for potential treatment of asthma” (J Med Chem, 2009).

What was measured:
[1] = Metabolic stability in C57BL/6 mouse liver microsome assessed as half life; format: ADME; conditions: liver microsomes
Collagenase 3 = Collagenase 3 (Homo sapiens, UniProt P45452); assay: Inhibition of human recombinant MMP13
in vitro [2] = conditions: rat, liver microsomes
in vitro [3] = conditions: human, liver microsomes
[4] = Volume of distribution at steady state in C57BL/6 mouse at 2 mg/kg, iv; format: ADME, organism-based; parameters: dose 2 mg/kg, route intravenous; conditions: in vivo, read-out: Vdss
[5] = Clearance in C57BL/6 mouse at 2 mg/kg, iv; format: ADME, organism-based; parameters: dose 2 mg/kg, route intravenous; conditions: in vivo
[6] = Half life in C57BL/6 mouse at 30 mg/kg, po; format: ADME, organism-based; parameters: dose 30 mg/kg, route oral; conditions: in vivo
[7] = Cmax in C57BL/6 mouse at 30 mg/kg, po; format: ADME, organism-based; parameters: dose 30 mg/kg, route oral; conditions: in vivo
[8] = Oral bioavailability in C57BL/6 mouse at 30 mg/kg; format: ADME, organism-based; conditions: in vivo
[9] = target: Macrophage metalloelastase (Homo sapiens, UniProt P39900)
Macrophage metalloelastase, sequence (P39900 whole entry): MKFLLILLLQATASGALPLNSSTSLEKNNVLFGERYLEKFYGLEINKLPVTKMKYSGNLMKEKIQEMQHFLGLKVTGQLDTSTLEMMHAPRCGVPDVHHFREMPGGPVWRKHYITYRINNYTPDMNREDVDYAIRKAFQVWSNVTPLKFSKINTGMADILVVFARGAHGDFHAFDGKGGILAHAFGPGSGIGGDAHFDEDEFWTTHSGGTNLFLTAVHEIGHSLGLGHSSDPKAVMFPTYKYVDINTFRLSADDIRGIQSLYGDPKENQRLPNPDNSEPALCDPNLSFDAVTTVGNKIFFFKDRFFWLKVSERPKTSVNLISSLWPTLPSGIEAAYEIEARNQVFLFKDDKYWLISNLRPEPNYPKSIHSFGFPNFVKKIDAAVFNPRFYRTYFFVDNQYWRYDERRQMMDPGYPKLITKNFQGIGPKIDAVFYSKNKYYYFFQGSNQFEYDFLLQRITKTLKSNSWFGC
Description: Inhibition of human recombinant MMP12

| half-life [1] [min] | IC50 (Collagenase 3) [µM] | half-life (in vitro [2]) [min] | half-life (in vitro [3]) [min] | IC50 [9] [µM] | Structure (SMILES) | Vd [4] [L/kg] | clearance [5] [mL/min/kg] | half-life [6] [min] | Cmax [7] [ng/mL] | bioavailability [8] [%] |
| --- | --- | --- | --- | --- | --- | --- | --- | --- | --- | --- |
| > 30 | > 25 | > 30 | > 30 | – | COC(=O)Nc1ccc2c(c1)sc1ccc(S(=O)(=O)N[C@@H](C(=O)O)C(C)C)cc12 | – | – | – | – | – |
| > 30 | 0.505 | > 30 | > 30 | – | COC(=O)Nc1ccc2c(c1)oc1cc(S(=O)(=O)N[C@H](C(=O)O)C(C)C)ccc12 | – | – | – | – | – |
| > 30 | 0.456 | > 30 | > 30 | – | CC(C)[C@H](NS(=O)(=O)c1ccc2c(c1)sc1cc(NC(=O)NCCc3cccs3)ccc12)C(=O)O | – | – | – | – | – |
| > 30 | 0.334 | > 30 | > 30 | – | CC(C)COC(=O)Nc1ccc2c(c1)sc1cc(S(=O)(=O)N[C@H](C(=O)O)C(C)C)ccc12 | – | – | – | – | – |
| > 30 | 0.147 | > 30 | > 30 | – | CC(C)OC(=O)Nc1ccc2c(c1)sc1cc(S(=O)(=O)N[C@H](C(=O)O)C(C)C)ccc12 | – | – | – | – | – |
| > 30 | > 1 | > 30 | > 30 | > 1 | CC(C)[C@H](NS(=O)(=O)c1ccc2c(c1)sc1cc(NC(=O)NC3CCCC3)ccc12)C(=O)O | – | – | – | – | – |
| > 30 | – | > 30 | > 30 | – | CCOC(=O)Nc1ccc2oc3cc(S(=O)(=O)N[C@H](C(=O)O)C(C)C)ccc3c2c1 | – | – | – | – | – |
| – | > 25 | – | – | – | CC(C)[C@@H](NS(=O)(=O)c1ccc2sc3cc(NS(C)(=O)=O)ccc3c2c1)C(=O)O | – | – | – | – | – |
| > 30 | > 1 | > 30 | > 30 | – | CC(C)[C@H](NS(=O)(=O)c1ccc2c(c1)sc1cc(N)ccc12)C(=O)O | – | – | – | – | – |
| > 30 | 0.632 | > 30 | > 30 | – | COC(=O)Nc1ccc2c(c1)sc1cc(S(=O)(=O)N[C@H](C(=O)O)C(C)C)ccc12 | – | – | – | – | – |
| > 30 | 0.269 | > 30 | > 30 | – | CC(C)[C@H](NS(=O)(=O)c1ccc2c(c1)sc1cc(NC(=O)Nc3ccccc3)ccc12)C(=O)O | – | – | – | – | – |
| – | > 25 | – | – | – | CC(C)[C@H](NS(=O)(=O)c1ccc2sc3cc(NS(C)(=O)=O)ccc3c2c1)C(=O)O | – | – | – | – | – |
| > 30 | > 25 | > 30 | > 30 | – | COC(=O)Nc1ccc2c(c1)sc1ccc(S(=O)(=O)N[C@H](C(=O)O)C(C)C)cc12 | – | – | – | – | – |
| > 30 | 0.04 | > 30 | > 30 | – | CC(C)[C@H](NS(=O)(=O)c1ccc2c(c1)sc1cc(NC(=O)OCCS(C)(=O)=O)ccc12)C(=O)O | – | – | – | – | – |
| – | 60 | – | – | – | CC(C)[C@H](NS(=O)(=O)c1ccc2sc3ccccc3c2c1)C(=O)O | – | – | – | – | – |
| > 30 | 0.225 | > 30 | > 30 | – | CC(C)[C@H](NS(=O)(=O)c1ccc2c(c1)sc1cc(NC(=O)Oc3ccccc3)ccc12)C(=O)O | – | – | – | – | – |
| > 30 | 1.09 | > 30 | > 30 | – | CC(C)[C@H](NS(=O)(=O)c1ccc2c(c1)oc1cc(N)ccc12)C(=O)O | – | – | – | – | – |
| > 30 | – | > 30 | > 30 | – | CCOC(=O)Nc1ccc2c(c1)sc1cc(S(=O)(=O)N[C@@H](C(=O)O)C(C)C)ccc12 | – | – | – | – | – |

| Structure (SMILES) | half-life [1] [min] | IC50 (Collagenase 3) [µM] | half-life (in vitro [2]) [min] | half-life (in vitro [3]) [min] | IC50 [9] [µM] | Vd [4] [L/kg] | clearance [5] [mL/min/kg] | half-life [6] [min] | Cmax [7] [ng/mL] | bioavailability [8] [%] |
| --- | --- | --- | --- | --- | --- | --- | --- | --- | --- | --- |
| COC(=O)Nc1ccc2sc3cc(S(=O)(=O)N[C@H](C(=O)O)C(C)C)ccc3c2c1 | > 30 | 0.065 | > 30 | > 30 | – | 1.7 | 31.2 | 186 | 1820 | 34 |
